Test results as given in patent US20030044856A1, “Method of determining volume dependent hypertension through protein reduction in phosphorylation or concentration and related apparatus” (priority 1997, published 2003).

Legend:
[1] = Systolic blood pressure by tail-cuff method in DOCA-salt hypertensive rats; type: in vivo, rat; settings: mean±SEM
Experimental: (§1) Male Sprague-Dawley rats, weighing 125-150 g (Charles River, Wilmington, Mass.), were randomly divided into three groups: (1) DOCA-salt group-rats underwent unilateral nephrectomy and were given an initial injection of 12.5 mg of deoxycorticosterone acetate (DOCA) followed by 6.5 mg weekly which was coupled with 1 percent saline as drinking water (Pamani et al. Altered Activity of the Sodium-Potassium Pump in Arteries of Rats with Steroid Hypertension, Clin. Sci. Mol. Med., 55:pp. 41s-43s (1978); (2) Uninephrectomized control group (UNE)-rats underwent unilateral nephrectomy and were given tap water ad libitum; (3) Normal group-normal rats drank tap water ad libitum and were not subjected to surgery. All three groups were maintained on normal rat chow. Systolic blood pressure was measured weekly by the tail-cuff method.
Referring to FIG. 1, there is shown a plot of systolic blood pressure in mm Hg versus time in days. The study involved ten rats in each of the three DOCA categories: (a) DOCA-salt; (b) UNE-uninephrectomized; and (c) NOR, normal group. The 2K1C study involved eight rats in each of the three groups: (a) 2K1C; (b) SHAM, sham-operated group; and (c) NOR, normal group.
The systolic blood pressure in the 2K1C rats increased from 121.4±1.7 mm Hg to 137.6±3.0 mm Hg by the first week after surgery and to 173.5±4.4 mm Hg by the 21st day (p<0.001). […]

[2] = system: Mr = 72,000 brush border membrane protein; assay: Phosphorylation of 72,000 Mr renal brush border membrane protein from treated rats (SDS-PAGE, autoradiography, densitometry); type: in vivo, rat; settings: for relative area units under the peak in the densitometry tracings of autoradiogram of the Mr = 72,000 brush border membrane protein: mean ± SEM
Experimental: as §1, with “([…]” for “(Pamani”, “method. […] J. Biol. Chem. 257:pp 992-99 (1982). […] Anal Biochem, 72:pp. 248-54 (1976). Autoradiography and densitometry were performed in accordance with […], et al., Phosphorylation of Endogenous Protein in Primate Kidney. […] Biochem. Physiol. 103B:pp 267-73 (1992). […] Data is expressed as mean±SEM, with statistical significance being calculated by Student's t test and the ANOVA test.” for “method.”

[3] = system: Mr = 72,000 brush border membrane protein; settings: 10 μM cyclic AMP
Description: The preparation of the rat renal proximal brush border membrane vesicles was accomplished in the following manner: When the systolic blood pressure in the DOCA and the 2K1C rat groups became elevated compared with each of the control groups (usually in 3-4 weeks), the kidney cortex was removed to prepare the proximal brush border membrane vesicles by a calcium precipitation method as described in Kempson et al., Inhibition of Renal Brush Border Phosphate Transport and Stimulation of Renal Gluconeogenesis by Cyclic AMP and Parathyroid Hormone, Biochem., Pharmacol., 32:pp. 1533-37 (1983). Vesicles were utilized only if there was at least an 8-fold enrichment in gamma-glutamyl transpeptidase activity in the proximal brush border membrane fraction compared to the original cortical homogenate. […]
The test results reported herein were determined by SDS polyacrylamide gel electrophoresis, autoradiography and densitometry. […] Protein concentration was determined by the method of Bradford using bovine serum albumin as a standard.
Autoradiography and densitometry were performed in accordance with Laminski, et al., Phosphorylation of Endogenous Protein in Primate Kidney. […] Scan traces were recorded with an Ultroscan XL laser densitometer (Pharmacia, LKB) and analyzed by using the computer GelScan XL Software (Version 2.1, Pharmacia).

Row | SMILES | systolic blood pressure ([1]; 7th day of treatment) [mm Hg] | systolic blood pressure ([1]; 21st day, p<0.001) [mm Hg] | relative area units under the peak in the densitometry tracings of autoradiogram of the Mr = 72,000 brush border membrane protein ([2]; +cAMP (10 μM cyclic AMP in incubation mixture)) [relative area units] | phosphorylation of the Mr=72,000 protein compared with UNE and normal rats ([2]; DOCA group rats, p<0.01) | relative area units under the peak in the densitometry tracings of autoradiogram of the Mr = 72,000 brush border membrane protein ([2]; −cAMP (no cyclic AMP in incubation mixture)) [relative area units] | influence of cAMP on phosphorylation of the Mr=72,000 protein ([3]; membranes from 2K1C, Sham and Normal rats) | effect of addition of cyclic AMP on phosphorylation of the Mr=72,000 protein ([3]; membranes from DOCA, UNE and Normal rats)
1 | CC(=O)OCC(=O)[C@H]1CC[C@H]2[C@@H]3CCC4=CC(=O)CC[C@]4(C)[C@H]3CC[C@]12C [DOCA, deoxycorticosterone acetate] | 128.9±2.1 | 188.2±5.3 | 1.218 ± 0.33 | significant attenuation | 1.389 ± 0.37 | – | –
2 | Nc1ncnc2c1ncn2[C@@H]1O[C@@H]2COP(=O)(O)O[C@H]2[C@H]1O [cyclic AMP] | – | – | – | – | – | not influenced | did not affect
